Key:
c-MET enzyme = target: T1, c-MET enzyme (Homo sapiens, UniProt P08581); test: Binding activity of c-MET enzyme assay (LanthaScreen Eu Kinase Binding Assay); conditions: cMET 5 nM, Tracer 236 30 nM, 60 mins at 4° C.
T1 construct: His (6xHis); purchased invitrogen PV3143
Description: Assay 1: Binding Activity of c-MET Enzyme Assay
(§1) Reagents and Consumables:
Eu-Anti-His AB (MAb Anti 6HIS-K)
The binding of tracer agent and antibody and kinase leaded to high FRET standard, while using kinase inhibitor instead of tracer agent would lead to loss of FRET.
1) The antibody Eu-Anti-His AB, enzyme cMET, tracer agent Tracer236 were diluted.
Double duplicate wells were set and each of them 75 nL.

MHCC97H cells = test: Inhibitory effect assay on proliferation (CellTiter-Glo); format: cell-based; conditions: Homo sapiens, 72 h, MHCC97-H, 3 days incubation, read-out: MHCC97H cell IC50
Description: Assay 2: Inhibitory Effect Assay on Proliferation
as §1
1) Cell culture: DMEM cell medium, fetal bovine serum, DPBS
3) Detection reagent: live cell detection kit CellTiter-Glo
4) Other major consumables and reagents: compound dilution plate, intermediate plate, test plate, DMSO
The amount of ATP directly reflects the number of cells and the state of the cells, thus the number of living cells could be directly detected by quantitatively measuring ATP. The live cell assay kit contains luciferase and its substrate. With the presence of ATP, a stable optical signal would be emitted by the luciferase catalyzed substrate. Thus the amount of ATP in the cell could be determined by detecting the intensity of the signal. The light signal was proportional to the amount of ATP in the cell, while the ATP was positively correlated with the number of living cells, so that the proliferation in the cell could be detected. The assay plate used was analyzed by Envision from PE Corporation.
1. Preparation of the Cell Plates
MHCC97-H cells were seeded separately into 384-well plates, each of the well contains 500 cells. The cell plates were placed and incubated in a carbon dioxide incubator overnight.
2. Preparation of the compound.
Echo was used for 4-time dilution and 9 concentration was prepared, ready for double duplicate wells assay.
3. Compound Treatment of Cells
The compounds were transferred to cell plates at a starting concentration of 10 μM. The cell plates were incubated in a carbon dioxide incubator for 3 days.
The […] reagent was added into the cell plates and the plate was incubated at room temperature for 10 mins to stabilize the luminescence signal. PerkinElmer Envision multi-label analyzer was used for readings.

[1] = t1/2 of liver particle metabolism, rat; format: in vitro ADME; conditions: liver particle (liver microsomes)
[2] = t1/2 of liver particle metabolism, human; format: in vitro ADME; conditions: liver particle (liver microsomes)
[3] = tested on: human liver cancer MHCC97H cell xenograft; test: Pharmacodynamics assay of MHCC97H liver cancer cell subcutaneous xenograft tumor model; format: in vivo, BALB/c nude mice; conditions: for Tumor volume (24th day): 24th day after administration, average ± SEM; for T/C / TGI: based on 24th day tumor volume
Description: Assay 3: Pharmacodynamics Assay of MHCC97H Liver Cancer Cell Subcutaneous Xanograft Tumor Model
MHCC97H cells were cultured in a single layer in-vitro. The culturing condition was RPMI1640 medium supplemented with 10% heat-inactivated fetal bovine serum, 1% penicillin-streptomycin double antibody under 37° C., 5% carbon dioxide. Digestion and passage treatment with trypsin-EDTA was done twice a week. When the cells are in the exponential growing phase, the cells were collected, counted and inoculated.
BALB/c nude mice, male. 6-8 weeks old, weighting 18-22 g.
0.2 mL of a cell suspension containing 5×10^6 MHCC97H was subcutaneously inoculated into the right back of each mouse. Drugs were administrated by group after the average tumor volume reached approximately 172 mm^3.
Aim of the assay: investigation of whether the tumor growth was inhibited, delayed or cured. The diameters of the tumor was measured twice a week using vernier calipers. The formula for calculating the tumor volume is V=0.5a×b2, and a and b represent the long and short diameters of the tumor respectively. The antitumor effect (TGI) of the compounds was evaluated by T-C (days) and T/C (%).

[4] = t1/2 of liver particle metabolism, mice; format: in vitro ADME; conditions: mouse, liver particle (liver microsomes)
MHCC97H cell = conditions: read-out: MHCC97H cell IC50; prior art section; cited from earlier work
[5] = in words, prior art section; cited from earlier work

T1 sequence (P08581 956-1390 limits assumed): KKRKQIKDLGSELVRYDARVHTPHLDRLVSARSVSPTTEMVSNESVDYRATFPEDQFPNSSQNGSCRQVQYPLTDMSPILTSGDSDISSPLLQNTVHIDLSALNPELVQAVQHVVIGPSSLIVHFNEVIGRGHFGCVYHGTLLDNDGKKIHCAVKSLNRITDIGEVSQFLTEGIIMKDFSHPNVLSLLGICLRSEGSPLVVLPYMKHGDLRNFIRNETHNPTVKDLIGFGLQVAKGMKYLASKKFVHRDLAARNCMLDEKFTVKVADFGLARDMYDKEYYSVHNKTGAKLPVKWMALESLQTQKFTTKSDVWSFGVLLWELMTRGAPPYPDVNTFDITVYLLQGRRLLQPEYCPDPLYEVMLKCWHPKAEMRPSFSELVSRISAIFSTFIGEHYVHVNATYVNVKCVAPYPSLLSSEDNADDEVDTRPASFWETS

SMILES	IC50 (c-MET enzyme) [nM]	IC50 (MHCC97H cells) [nM]	other results
CN1CCC(COc2cnc(-c3cccc(Cn4cc(-c5cc(C#N)ccn5)ccc4=O)c3)nc2)CC1 [Embodiment 6]	4.37	32.9	–
Cc1cc(-c2cc(F)c(=O)n(C(C)c3cccc(-c4ncc(OCC5CCN(C)CC5)cn4)c3)c2)sn1 (centres unmarked) [Embodiment 2-2]	9.33	13.8	–
CN1CCC(COc2cnc(-c3cccc(Cn4cc(-c5cc(C#N)ccc5F)ccc4=O)c3)nc2)CC1 [Embodiment 4]	6.16	72.9	–
Cc1cc(-c2ccc(=O)n(Cc3cccc(-c4ncc(OCC5CCN(C)CC5)cn4)c3)c2)sn1 [Embodiment 11]	5	93.8	–
Cc1cc(-c2ccc(=O)n(Cc3cccc(-c4ncc(OCC5CCN(C)CC5)cn4)c3)c2)on1 [Embodiment 12]	–	51.4	–
CC(c1cccc(-c2ncc(OCC3CCN(C)CC3)cn2)c1)n1cc(-c2cc(C#N)ccn2)cc(F)c1=O (single isomer, unassigned) [Embodiment 1-2]	–	–	half-life [1]: 36.5 min; half-life [2]: 62.1 min; Tumor volume (24th day) [3]: 153 ± 12 mm^3; T/C [3]: 7.4%; TGI [3]: 101.0%; half-life [4]: 49.1 min
Cc1cc(-c2cc(F)c(=O)n(Cc3cccc(-c4ncc(OCC5CCN(C)CC5)cn4)c3)c2)sn1 [Embodiment 5]	2.9	58.8	–
CN1CCC(COc2cnc(-c3cccc(Cn4cc(-c5cnn(C)c5)ccc4=O)c3)nc2)CC1 [Embodiment 10]	69.5	166	–
Cc1cc(-c2cc(F)c(=O)n([C@H](C)c3cccc(-c4ncc(OCC5CCN(C)CC5)cn4)c3)c2)on1 (single isomer, unassigned) [Embodiment 8-2]	3.79	–	Tumor volume (24th day) [3]: 161 ± 6 mm^3; T/C [3]: 7.8%; TGI [3]: 100.6%
CN1CCC(COc2cnc(-c3cccc(Cn4nc(-c5cccc(C#N)c5)ccc4=O)c3)nc2)CC1 [Tepotinib, reference compound]	–	–	IC50 (MHCC97H cell): 6.2 nM; Tumor volume (24th day) [3]: 255 ± 5 mm^3; T/C [3]: 12.4%; TGI [3]: 95.6%; clearance rate in vivo [5]: high clearance rate in vivo; metabolic stability [5]: low metabolic stability
CN1CCC(COc2cnc(-c3cccc(Cn4cc(-c5cc(C#N)ccn5)cc(F)c4=O)c3)nc2)CC1 [Embodiment 7]	15.5	22.3	–
Cc1cc(-c2ccc(=O)n([C@H](C)c3cccc(-c4ncc(OCC5CCN(C)CC5)cn4)c3)c2)sn1 [Embodiment 3-2]	–	19	–

— patent US10501443B2, “Pyridone compound as c-met inhibitor” (FUJIAN COSUNTER PHARMACEUTICAL CO., LTD., priority 2016, dated 2019)
